Test results from US20100075907A1, “NEUROMEDIN U RECEPTOR AGONISTS AND USES THEREOF” (priority 2006, published 2010).
Starred links: 1 amine or outer side, 2 acyl side, 3 side chain; linkers in the order of their positions; H or OH if unused. Non-standard residues stand in square brackets, D forms with d. Residues, ends and D or L forms follow the SMILES beside them. *: point of attachment. X2 = CCN1C(=O)CC(SC[C@H](NC(C)=O)C(=O)NCCCOCCOCCOCCCN*)C1=O; Succinimide(1-Et,3-yl) = CCN1C(=O)CC(*)C1=O; Palmitoyl = CCCCCCCCCCCCCCCC(=O)*; Suc = O=C(CCC(=O)[*:2])[*:1]

Tests used:
rat NMUR1-TTG = target: T1, rat NMUR1-TTG (Rattus norvegicus, UniProt Q9JJI5); assay: FLIPR calcium mobilization assay, rat NMUR1-TTG; type: cell-based; set-up: expressed in transfected cells; host or cells: FLP-In CHO or HEK-293 FLP-In cells (pcDNA5); conditions: for EC50: FLIPR
T1 sequence (Q9JJI5 1-425): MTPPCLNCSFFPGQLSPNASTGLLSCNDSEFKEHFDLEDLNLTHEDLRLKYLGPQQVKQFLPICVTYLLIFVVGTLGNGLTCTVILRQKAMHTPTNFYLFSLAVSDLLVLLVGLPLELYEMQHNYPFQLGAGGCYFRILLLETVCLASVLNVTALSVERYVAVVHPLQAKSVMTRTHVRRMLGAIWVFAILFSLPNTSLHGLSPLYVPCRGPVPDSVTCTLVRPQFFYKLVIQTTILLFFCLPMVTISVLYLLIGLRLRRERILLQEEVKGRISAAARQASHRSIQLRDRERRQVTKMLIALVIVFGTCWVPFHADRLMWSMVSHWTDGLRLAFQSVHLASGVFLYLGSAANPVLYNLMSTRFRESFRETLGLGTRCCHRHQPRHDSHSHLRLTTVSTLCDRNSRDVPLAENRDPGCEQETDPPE
Description: Human, mouse or rat cDNAs encoding NMUR1 or NMUR2 (as described in Howard et al. Nature 406: 70-74 (2000) were subcloned in pcDNA5 (Invitrogen) and transfected into FLP-In CHO cells and HEK-293 FLP-In cells purchased from Invitrogen (Carlsbad, Calif.) using lipofectamine (Invitrogen). The Flp-In system allows integration and expression of a particular gene of interest at a specific genomic location utilizing the Flp recombinase from yeast. The transfected cells were selected by growth in medium containing 200 μg/mL hygromycin (Invitrogen). Populations were frozen at early passage numbers, and these stocks were used for further studies. Stable clones that expressed the mRNAs were identified functionally by FLIPR as well as by RT-PCR. […] Two different rodent NMUR1 cell lines were thus generated: one with the codon as predicted from the genomic databases and another cell line with an engineered methionine (ATG) as the start codon. Additionally, stable cell lines expressing the human receptors were generated in HEK-293/aeq17 cells which stably express the aequorin gene under the CMV promoter. The human NMUR2 cDNA was cloned into pcDNA3.1 and human NMUR1 was subcloned into pIRES-puro (Clontech, Mountain View, Calif.), after transfection cells were selected in media containing G418 and either hygromycin (NMUR2) or puromycin (NMUR1).
The NMU receptors signal primarily through Gαq/11 proteins; therefore calcium mobilization assays can be utilized for functional activity.
Stable cell lines expressing human and or rodent NMUR1 or human NMUR2 receptors were plated at a density of 12,000 cells per well overnight on poly-lysine coated 384-well black-walled plates. The following day, the media was removed from the plates and the cells were subsequently loaded with Fluo-3 (Molecular Probes), a calcium sensitive dye, diluted in FLIPR buffer (1× Hank's buffered saline containing 20 mM HEPES, 0.1% BSA, 2.5 mM probenecid (Sigma) and 1.6 mM TR40). All reagents are from Invitrogen unless otherwise noted. Peptide stocks were resuspended in DMSO at a stock concentration of 2 mM and diluted in FLIPR buffer on the day of the experiment to a 4 μM working stock solution.
After a 90 minute incubation at room-temperature, cell plates were loaded onto a FLIPR (Molecular Devices) to monitor cellular fluorescence (excitation=488 nm; emission=540 nm) before and after compound/peptide addition. Eight to twelve point dose responses were tested on NMUR-expressing cell lines using FLIPR with 1 μM peptide as the highest dose. The response after peptide addition was taken as the maximum fluorescence units minus the fluorescence immediately prior to stimulation for each well. EC50 values were calculated using GraphPad Prism (San Diego, Calif.) software.
In vitro responses of Neuromedin U receptor agonists (NMU1 to NMU25) in the FLIPR assay for human (Table 3), mouse (Table 4) and rat (Table 5) NMUR1 and NMUR2. EC50s are reported in nM values. Percent activity refers to the maximum response at 1 μM compared to the hNMU-25 response at the same concentration. NT=not tested.

diet-induced obese mice = assay: Feeding study in diet-induced obese mice (food intake, body weight); type: in vivo
Description: NMUR1 knockout (Nmur1−/−) mice were generated using standard homologous recombination techniques. Nmur1 mice were subsequently transferred to Taconic Farms where they were either maintained on a 75% C57BL/6×25% 129S6/SvEv mixed genetic background or backcrossed six generations to C57BL/6. NMUR2 knockout (Nmur2−/−) mice were licensed from Deltagen Inc., San Mateo, Calif. and subsequently transferred to Taconic Farms where they were either maintained on a 75% C57BL/6×25% 129/OlaHsd mixed genetic background or backcrossed for seven generations to C57BL/6. NMUR1 and NMUR2 double knockout (Nmur1&2−/−) mice were generated by crossing N6 Nmur1−/− mice to N7 Nmur2−/− mice. Mice were individually housed in Tecniplast cages in a conventional SPF facility. Mice were initially maintained on a regular chow diet and then early in their life were switched to a high fat diet (D12492: 60% kcal from fat; Research Diets, Inc., New Brunswick, N.J.) with ad libitum access to water in a 12-hour light/12-hour dark cycle.
Ad libitum fed male diet-induced obese mice were weighed and dosed either i.p. or s.c. about 30 minutes prior to the onset of the dark phase of the light cycle and provided with a preweighed aliquot of high fat diet D12492 which was then weighed 2 hours and 18 hours (day 1), 42 hours (day 2), 66 hours (day 3), and 90 hours (day 4) after the onset of the initial dark phase. Mice were weighed at the 18, 42, 66 and 90 hour time points.

[1] = maximum response at 1 μM compared to hNMU-25, rat NMUR1-TTG

Row | Compound | % Activity (rat NMUR1-TTG; [1]) | other results
1 | CC(C)C[C@@H](NC(=O)[C@H](Cc1ccccc1)NC(=O)[C@H](Cc1ccc(O)cc1)NC(=O)CNC(=O)[C@H](CCCNC(=N)N)NC(=O)[C@H](CO)NC(=O)[C@H](CCC(N)=O)NC(=O)[C@H](CO)NC(=O)[C@H](C)NC(=O)[C@H](Cc1ccccc1)NC(=O)[C@@H]1CCCN1C(=O)[C@H](CO)NC(=O)[C@H](CCC(N)=O)NC(=O)[C@H](Cc1ccccc1)NC(=O)[C@H](CCC(=O)O)NC(=O)[C@H](CCC(=O)O)NC(=O)[C@H](CC(=O)O)NC(=O)[C@@H](NC(=O)[C@H](CCCNC(=N)N)NC(=O)[C@@H](N)Cc1ccccc1)C(C)C)C(=O)N[C@@H](Cc1c[nH]c2ccccc12)C(=O)N[C@@H](CCCNC(=N)N)C(=O)N1CCC[C@H]1C(=O)N[C@@H](CCCNC(=N)N)C(=O)N[C@@H](CC(N)=O)C(N)=O [Agonist H] (H-FRVDEEFQSPFASQSRGYF[dL]WRPRN-NH2; N-terminus assumed) |  | % Activity (rat NMUR1-TTG; functional, rat R1-TTG, relative to native hNMU responses): 91%; food intake (diet-induced obese mice; acute peripheral administration, wild-type mice): significantly reduced food intake; food intake (diet-induced obese mice; ip 3.25 mmoles/kg, diet-induced obese Nmur1+/+ and Nmur1−/− mice, about 2 and 18 hours): reduces food intake
2 | CCN1C(=O)CC(SC[C@H](NC(C)=O)C(=O)NCCCOCCOCCOCCCNC(=O)CCC(=O)N[C@@H](Cc2ccccc2)C(=O)N[C@@H](CC(C)C)C(=O)N[C@@H](Cc2ccccc2)C(=O)N[C@@H](CCCNC(=N)N)C(=O)N2CCC[C@H]2C(=O)N[C@@H](CCCNC(=N)N)C(=O)N[C@@H](CC(N)=O)C(N)=O)C1=O (stereo partly shown) [NMU15, Ac-C1-Ttds-FLFRPRN-CONH2] ({X2-Suc}-FLFRPRN-NH2) | 107.5% | 
3 | CCN1C(=O)CC(SC[C@H](NC(C)=O)C(=O)N[C@@H](C)C(=O)N[C@@H](CO)C(=O)N[C@@H](CCC(N)=O)C(=O)N[C@@H](CO)C(=O)N[C@@H](CCCNC(=N)N)C(=O)NCC(=O)N[C@@H](Cc2ccc(O)cc2)C(=O)N[C@@H](Cc2ccccc2)C(=O)N[C@@H](CC(C)C)C(=O)N[C@@H](Cc2ccccc2)C(=O)N[C@@H](CCCNC(=N)N)C(=O)N2CCC[C@H]2C(=O)N[C@@H](CCCNC(=N)N)C(=O)N[C@@H](CC(N)=O)C(N)=O)C1=O (stereo partly shown) [NMU17] (Ac-C(Succinimide(1-Et,3-yl))ASQSRGYFLFRPRN-NH2) | 105.3% | 
4 | CCN1C(=O)CC(SC[C@H](NC(C)=O)C(=O)N[C@@H](Cc2ccccc2)C(=O)N[C@@H](CCC(N)=O)C(=O)N[C@@H](CO)C(=O)N2CCC[C@H]2C(=O)N[C@@H](Cc2ccccc2)C(=O)N[C@@H](C)C(=O)N[C@@H](CO)C(=O)N[C@@H](CCC(N)=O)C(=O)N[C@@H](CO)C(=O)N[C@@H](CCCNC(=N)N)C(=O)NCC(=O)N[C@@H](Cc2ccc(O)cc2)C(=O)N[C@@H](Cc2ccccc2)C(=O)N[C@@H](CC(C)C)C(=O)N[C@@H](Cc2ccccc2)C(=O)N[C@@H](CCCNC(=N)N)C(=O)N2CCC[C@H]2C(=O)N[C@@H](CCCNC(=N)N)C(=O)N[C@@H](CC(N)=O)C(N)=O)C1=O (stereo partly shown) [NMU19] (Ac-C(Succinimide(1-Et,3-yl))FQSPFASQSRGYFLFRPRN-NH2) | 100% | 
5 | CCN1C(=O)CC(SC[C@H](NC(C)=O)C(=O)N[C@@H](CSC2CC(=O)N(CC)C2=O)C(=O)N[C@@H](Cc2ccccc2)C(=O)N[C@@H](CCCNC(=N)N)C(=O)N[C@H](C(=O)N[C@@H](CC(=O)O)C(=O)N[C@@H](CCC(=O)O)C(=O)N[C@@H](CCC(=O)O)C(=O)N[C@@H](Cc2ccccc2)C(=O)N[C@@H](CCC(N)=O)C(=O)N[C@@H](CO)C(=O)N2CCC[C@H]2C(=O)N[C@@H](Cc2ccccc2)C(=O)N[C@@H](C)C(=O)N[C@@H](CO)C(=O)N[C@@H](CCC(N)=O)C(=O)N[C@@H](CO)C(=O)N[C@@H](CCCNC(=N)N)C(=O)NCC(=O)N[C@@H](Cc2ccc(O)cc2)C(=O)N[C@@H](Cc2ccccc2)C(=O)N[C@@H](CC(C)C)C(=O)N[C@@H](Cc2ccccc2)C(=O)N[C@@H](CCCNC(=N)N)C(=O)N2CCC[C@H]2C(=O)N[C@@H](CCCNC(=N)N)C(=O)N[C@@H](CC(N)=O)C(N)=O)C(C)C)C1=O (stereo partly shown) [NMU22] (Ac-C(Succinimide(1-Et,3-yl))C(Succinimide(1-Et,3-yl))FRVDEEFQSPFASQSRGYFLFRPRN-NH2) | 96.4% | 
6 | CCCCCCCCCCCCCCCC(=O)N[C@@H](CSC1CC(=O)N(CC)C1=O)C(=O)N[C@@H](Cc1ccccc1)C(=O)N[C@@H](CCCNC(=N)N)C(=O)N[C@H](C(=O)N[C@@H](CC(=O)O)C(=O)N[C@@H](CCC(=O)O)C(=O)N[C@@H](CCC(=O)O)C(=O)N[C@@H](Cc1ccccc1)C(=O)N[C@@H](CCC(N)=O)C(=O)N[C@@H](CO)C(=O)N1CCC[C@H]1C(=O)N[C@@H](Cc1ccccc1)C(=O)N[C@@H](C)C(=O)N[C@@H](CO)C(=O)N[C@@H](CCC(N)=O)C(=O)N[C@@H](CO)C(=O)N[C@@H](CCCNC(=N)N)C(=O)NCC(=O)N[C@@H](Cc1ccc(O)cc1)C(=O)N[C@@H](Cc1ccccc1)C(=O)N[C@@H](CC(C)C)C(=O)N[C@@H](Cc1ccccc1)C(=O)N[C@@H](CCCNC(=N)N)C(=O)N1CCC[C@H]1C(=O)N[C@@H](CCCNC(=N)N)C(=O)N[C@@H](CC(N)=O)C(N)=O)C(C)C (stereo partly shown) [NMU24] (Palmitoyl-C(Succinimide(1-Et,3-yl))FRVDEEFQSPFASQSRGYFLFRPRN-NH2) | 67.7% | 
7 | Ac-C4-C4-FRVDEEFQSPFASQSRGYFLFRPRN-CONH2 ({Ac-C(PEG 20 kDa)-C(PEG 20 kDa)}-FRVDEEFQSPFASQSRGYFLFRPRN-NH2) [NMU23, C4 = Cys(PEG)20 kDa] | 39.8% | 
8 | Ac-C4FRVDEEFQSPFASQSRGYFLFRPRN-CONH2 ({Ac-C(PEG 20 kDa)}-FRVDEEFQSPFASQSRGYFLFRPRN-NH2) [NMU21, C4 = Cys(PEG)20 kDa] | 77.5% | EC50 (rat NMUR1-TTG; rat NMUR1-TTG): 220 nM
9 | Pam-C2FRVDEEFQSPFASQSRGYFLFRPRN-CONH2 ({Palmitoyl-C(PEG 40 kDa)}-FRVDEEFQSPFASQSRGYFLFRPRN-NH2) [NMU25, Pam = palmitoyl; C2 = Cys(PEG)240 kDa] | 93.5% | EC50 (rat NMUR1-TTG; rat NMUR1-TTG): 81 nM
